Test results reported in ChEMBL document CHEMBL3991601, “The target landscape of clinical kinase drugs” (Science, 2017).
Activity calls are given as the source filed them.

How the values were obtained:
[1] = target: Atypical kinase COQ8A, mitochondrial (Homo sapiens, UniProt Q8NI60)
[2] = target: Serine/threonine-protein kinase MRCK alpha (Homo sapiens, UniProt Q5VT25)
[3] = target: Casein kinase II subunit alpha' (Homo sapiens, UniProt P19784)
[4] = target: T1, Delta(24)-sterol reductase (Homo sapiens, UniProt Q15392)
T1 sequence (Q15392 whole entry): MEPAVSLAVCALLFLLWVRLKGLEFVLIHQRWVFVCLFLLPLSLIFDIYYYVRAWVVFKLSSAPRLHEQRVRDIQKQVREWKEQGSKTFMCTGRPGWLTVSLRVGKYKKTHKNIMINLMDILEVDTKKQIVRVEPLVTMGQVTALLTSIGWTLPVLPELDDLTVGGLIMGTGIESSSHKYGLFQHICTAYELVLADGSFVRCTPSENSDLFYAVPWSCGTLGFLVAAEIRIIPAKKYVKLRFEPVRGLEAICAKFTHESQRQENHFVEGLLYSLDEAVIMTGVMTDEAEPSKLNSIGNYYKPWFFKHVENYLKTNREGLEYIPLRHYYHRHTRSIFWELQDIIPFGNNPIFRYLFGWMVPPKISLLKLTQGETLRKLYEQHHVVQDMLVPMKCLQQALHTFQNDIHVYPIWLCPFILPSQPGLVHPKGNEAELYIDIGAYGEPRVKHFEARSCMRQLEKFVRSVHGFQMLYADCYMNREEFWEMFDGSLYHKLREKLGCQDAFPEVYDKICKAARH

[5] = target: NADH dehydrogenase [ubiquinone] 1 alpha subcomplex subunit 13 (Homo sapiens, UniProt Q9P0J0)
[6] = target: Serine/threonine-protein kinase PAK 4 (Homo sapiens, UniProt O96013)
[7] = target: Platelet-derived growth factor receptor beta (Homo sapiens, UniProt P09619)
[8] = target: T2, ATP-dependent 6-phosphofructokinase, platelet type (Homo sapiens, UniProt Q01813)
T2 sequence (Q01813 whole entry): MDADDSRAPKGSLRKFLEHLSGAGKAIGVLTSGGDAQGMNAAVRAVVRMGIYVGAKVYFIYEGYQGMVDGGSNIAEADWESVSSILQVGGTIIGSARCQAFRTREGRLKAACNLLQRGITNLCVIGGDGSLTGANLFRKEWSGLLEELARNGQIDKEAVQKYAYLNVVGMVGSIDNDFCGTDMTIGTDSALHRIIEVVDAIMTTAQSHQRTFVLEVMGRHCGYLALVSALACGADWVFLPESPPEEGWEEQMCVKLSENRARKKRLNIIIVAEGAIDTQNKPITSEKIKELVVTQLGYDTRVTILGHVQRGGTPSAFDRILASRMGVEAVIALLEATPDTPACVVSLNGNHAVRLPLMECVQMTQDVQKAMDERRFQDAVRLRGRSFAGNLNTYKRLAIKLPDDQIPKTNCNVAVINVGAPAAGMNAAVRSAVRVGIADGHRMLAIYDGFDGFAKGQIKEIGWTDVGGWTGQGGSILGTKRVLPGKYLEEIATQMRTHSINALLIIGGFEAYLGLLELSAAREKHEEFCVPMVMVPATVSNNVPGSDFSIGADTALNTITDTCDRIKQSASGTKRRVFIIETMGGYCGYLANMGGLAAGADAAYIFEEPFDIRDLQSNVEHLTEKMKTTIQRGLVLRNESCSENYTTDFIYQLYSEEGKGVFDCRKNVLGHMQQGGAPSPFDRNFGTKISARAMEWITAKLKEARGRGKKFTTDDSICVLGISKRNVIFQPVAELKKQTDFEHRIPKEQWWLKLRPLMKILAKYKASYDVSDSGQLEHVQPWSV

[9] = target: cAMP-dependent protein kinase catalytic subunit beta (Homo sapiens, UniProt P22694)
[10] = target: U5 small nuclear ribonucleoprotein 200 kDa helicase (Homo sapiens, UniProt O75643)
DNA topoisomerase 2-beta = DNA topoisomerase 2-beta (Homo sapiens, UniProt Q02880)
[11] = target: Maternal embryonic leucine zipper kinase (Homo sapiens, UniProt Q14680)
[12] = target: T3, Serine/threonine-protein kinase PLK4 (Homo sapiens, UniProt O00444)
T3 sequence (O00444 whole entry): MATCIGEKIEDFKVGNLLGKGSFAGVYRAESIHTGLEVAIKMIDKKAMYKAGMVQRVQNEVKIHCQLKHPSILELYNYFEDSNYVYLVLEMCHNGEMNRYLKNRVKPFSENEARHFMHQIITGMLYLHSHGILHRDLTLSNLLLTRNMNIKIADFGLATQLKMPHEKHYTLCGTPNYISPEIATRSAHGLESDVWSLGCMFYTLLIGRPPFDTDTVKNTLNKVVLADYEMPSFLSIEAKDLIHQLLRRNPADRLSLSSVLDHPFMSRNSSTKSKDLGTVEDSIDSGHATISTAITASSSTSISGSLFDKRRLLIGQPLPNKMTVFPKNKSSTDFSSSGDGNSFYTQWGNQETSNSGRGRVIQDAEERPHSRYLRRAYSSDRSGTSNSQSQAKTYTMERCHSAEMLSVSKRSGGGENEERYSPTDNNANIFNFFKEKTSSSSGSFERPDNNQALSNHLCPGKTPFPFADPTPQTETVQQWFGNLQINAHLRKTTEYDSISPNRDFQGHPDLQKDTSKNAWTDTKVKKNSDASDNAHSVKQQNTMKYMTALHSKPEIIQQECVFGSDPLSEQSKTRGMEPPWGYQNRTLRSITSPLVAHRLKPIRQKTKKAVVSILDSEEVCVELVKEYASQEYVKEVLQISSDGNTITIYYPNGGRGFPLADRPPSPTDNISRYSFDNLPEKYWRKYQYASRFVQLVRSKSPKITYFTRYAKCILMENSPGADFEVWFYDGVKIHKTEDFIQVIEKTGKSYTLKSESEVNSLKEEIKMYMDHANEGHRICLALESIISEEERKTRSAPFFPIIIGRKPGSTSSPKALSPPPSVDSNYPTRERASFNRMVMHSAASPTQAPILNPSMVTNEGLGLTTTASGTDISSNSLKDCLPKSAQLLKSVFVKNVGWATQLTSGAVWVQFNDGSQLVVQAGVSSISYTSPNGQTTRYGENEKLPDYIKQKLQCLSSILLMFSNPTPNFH
Also: in the data inactive means no Kd found up to 30 µM.

Chain of Serine/threonine-protein kinase PAK 4 (O96013 whole entry): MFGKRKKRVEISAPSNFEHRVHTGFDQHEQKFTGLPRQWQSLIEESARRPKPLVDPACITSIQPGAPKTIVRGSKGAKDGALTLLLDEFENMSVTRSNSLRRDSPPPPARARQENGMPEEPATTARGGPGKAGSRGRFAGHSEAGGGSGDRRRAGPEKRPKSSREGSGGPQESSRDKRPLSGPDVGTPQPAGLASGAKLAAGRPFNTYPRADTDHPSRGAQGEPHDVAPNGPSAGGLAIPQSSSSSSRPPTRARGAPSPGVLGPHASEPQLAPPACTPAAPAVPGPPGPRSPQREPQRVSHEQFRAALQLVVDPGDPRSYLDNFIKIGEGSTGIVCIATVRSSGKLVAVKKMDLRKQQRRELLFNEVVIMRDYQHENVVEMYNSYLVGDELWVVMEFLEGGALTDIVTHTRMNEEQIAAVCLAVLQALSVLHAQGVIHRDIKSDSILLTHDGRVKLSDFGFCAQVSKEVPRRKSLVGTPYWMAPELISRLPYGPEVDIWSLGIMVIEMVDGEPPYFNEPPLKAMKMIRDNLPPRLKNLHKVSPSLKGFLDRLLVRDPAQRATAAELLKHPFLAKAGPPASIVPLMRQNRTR
Chain of DNA topoisomerase 2-beta (Q02880 whole entry): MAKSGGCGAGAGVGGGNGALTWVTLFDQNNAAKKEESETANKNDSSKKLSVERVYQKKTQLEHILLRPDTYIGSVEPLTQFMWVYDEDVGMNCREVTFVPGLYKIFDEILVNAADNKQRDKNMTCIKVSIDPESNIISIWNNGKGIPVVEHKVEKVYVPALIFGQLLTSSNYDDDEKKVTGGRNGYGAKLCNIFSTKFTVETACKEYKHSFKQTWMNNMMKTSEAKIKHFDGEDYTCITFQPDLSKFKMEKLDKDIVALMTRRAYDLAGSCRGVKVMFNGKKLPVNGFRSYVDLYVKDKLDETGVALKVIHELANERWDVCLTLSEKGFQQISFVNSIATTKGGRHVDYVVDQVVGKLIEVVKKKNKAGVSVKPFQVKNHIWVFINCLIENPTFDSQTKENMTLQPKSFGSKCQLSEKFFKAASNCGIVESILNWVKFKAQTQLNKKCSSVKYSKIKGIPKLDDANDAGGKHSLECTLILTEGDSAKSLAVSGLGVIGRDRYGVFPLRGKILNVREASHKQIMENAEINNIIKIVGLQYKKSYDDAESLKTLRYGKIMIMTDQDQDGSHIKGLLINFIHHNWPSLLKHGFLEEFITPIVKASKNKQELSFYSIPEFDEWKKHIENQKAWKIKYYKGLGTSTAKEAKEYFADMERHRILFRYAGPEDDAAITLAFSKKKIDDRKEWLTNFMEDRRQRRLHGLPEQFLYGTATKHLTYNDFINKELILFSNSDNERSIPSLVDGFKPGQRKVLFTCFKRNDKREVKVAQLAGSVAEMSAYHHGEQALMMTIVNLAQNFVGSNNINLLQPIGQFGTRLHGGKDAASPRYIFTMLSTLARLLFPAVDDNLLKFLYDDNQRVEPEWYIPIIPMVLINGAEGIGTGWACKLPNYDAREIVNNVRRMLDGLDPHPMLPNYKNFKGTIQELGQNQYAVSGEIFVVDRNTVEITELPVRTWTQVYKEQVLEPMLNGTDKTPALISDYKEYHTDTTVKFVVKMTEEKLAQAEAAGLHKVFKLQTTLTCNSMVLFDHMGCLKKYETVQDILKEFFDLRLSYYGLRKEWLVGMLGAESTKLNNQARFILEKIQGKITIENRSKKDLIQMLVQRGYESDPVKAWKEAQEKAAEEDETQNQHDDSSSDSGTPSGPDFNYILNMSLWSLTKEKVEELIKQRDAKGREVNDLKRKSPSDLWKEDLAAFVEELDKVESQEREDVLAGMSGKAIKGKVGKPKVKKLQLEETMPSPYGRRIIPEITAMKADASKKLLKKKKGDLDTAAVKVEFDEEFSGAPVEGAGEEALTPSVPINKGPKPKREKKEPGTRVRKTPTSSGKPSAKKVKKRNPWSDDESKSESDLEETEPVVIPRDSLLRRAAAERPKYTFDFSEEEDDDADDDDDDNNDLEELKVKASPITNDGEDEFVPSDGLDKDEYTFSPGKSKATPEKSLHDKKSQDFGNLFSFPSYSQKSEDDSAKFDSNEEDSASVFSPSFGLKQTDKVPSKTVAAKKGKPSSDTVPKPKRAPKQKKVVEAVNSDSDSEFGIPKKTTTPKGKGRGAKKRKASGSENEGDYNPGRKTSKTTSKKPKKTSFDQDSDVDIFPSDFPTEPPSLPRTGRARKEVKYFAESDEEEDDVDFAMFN
Chain of Casein kinase II subunit alpha' (P19784 whole entry): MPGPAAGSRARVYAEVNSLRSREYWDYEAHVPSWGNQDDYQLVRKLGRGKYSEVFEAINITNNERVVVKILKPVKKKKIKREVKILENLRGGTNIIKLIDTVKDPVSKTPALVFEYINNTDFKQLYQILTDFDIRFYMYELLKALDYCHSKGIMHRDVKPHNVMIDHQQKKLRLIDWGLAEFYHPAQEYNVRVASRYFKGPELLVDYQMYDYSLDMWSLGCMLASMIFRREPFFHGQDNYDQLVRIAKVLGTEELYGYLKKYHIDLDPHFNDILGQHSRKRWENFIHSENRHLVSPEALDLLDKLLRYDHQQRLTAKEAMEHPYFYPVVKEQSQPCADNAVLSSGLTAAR
Chain of Platelet-derived growth factor receptor beta (P09619 whole entry): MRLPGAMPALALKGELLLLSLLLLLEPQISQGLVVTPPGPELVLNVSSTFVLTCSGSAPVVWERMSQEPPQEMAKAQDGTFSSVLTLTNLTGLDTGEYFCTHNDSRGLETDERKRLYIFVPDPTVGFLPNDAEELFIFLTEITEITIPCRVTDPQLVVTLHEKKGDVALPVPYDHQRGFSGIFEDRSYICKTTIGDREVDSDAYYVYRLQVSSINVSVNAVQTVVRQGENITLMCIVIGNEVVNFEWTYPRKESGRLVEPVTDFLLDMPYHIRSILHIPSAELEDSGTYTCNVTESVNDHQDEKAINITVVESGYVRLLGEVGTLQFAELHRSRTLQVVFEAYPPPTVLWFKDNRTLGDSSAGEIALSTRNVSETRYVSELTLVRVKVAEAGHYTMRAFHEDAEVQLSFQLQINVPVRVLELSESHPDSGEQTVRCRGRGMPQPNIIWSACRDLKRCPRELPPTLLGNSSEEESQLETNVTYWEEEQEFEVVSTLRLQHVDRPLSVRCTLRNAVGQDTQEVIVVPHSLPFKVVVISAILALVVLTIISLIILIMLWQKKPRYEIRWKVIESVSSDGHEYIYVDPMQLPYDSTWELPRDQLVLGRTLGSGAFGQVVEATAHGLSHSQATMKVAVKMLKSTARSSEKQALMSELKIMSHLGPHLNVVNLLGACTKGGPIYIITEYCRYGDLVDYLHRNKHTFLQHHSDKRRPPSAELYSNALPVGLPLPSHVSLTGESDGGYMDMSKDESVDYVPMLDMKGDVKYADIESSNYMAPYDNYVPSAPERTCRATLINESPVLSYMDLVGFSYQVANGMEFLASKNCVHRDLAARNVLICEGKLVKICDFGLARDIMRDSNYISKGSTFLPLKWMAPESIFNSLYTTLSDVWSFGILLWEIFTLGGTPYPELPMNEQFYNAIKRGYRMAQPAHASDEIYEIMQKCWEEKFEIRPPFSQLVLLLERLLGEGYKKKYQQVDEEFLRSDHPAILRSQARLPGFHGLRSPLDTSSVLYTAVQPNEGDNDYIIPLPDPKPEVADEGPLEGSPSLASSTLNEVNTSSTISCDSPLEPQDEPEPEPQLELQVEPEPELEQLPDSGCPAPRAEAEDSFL
Chain of Atypical kinase COQ8A, mitochondrial (Q8NI60 whole entry): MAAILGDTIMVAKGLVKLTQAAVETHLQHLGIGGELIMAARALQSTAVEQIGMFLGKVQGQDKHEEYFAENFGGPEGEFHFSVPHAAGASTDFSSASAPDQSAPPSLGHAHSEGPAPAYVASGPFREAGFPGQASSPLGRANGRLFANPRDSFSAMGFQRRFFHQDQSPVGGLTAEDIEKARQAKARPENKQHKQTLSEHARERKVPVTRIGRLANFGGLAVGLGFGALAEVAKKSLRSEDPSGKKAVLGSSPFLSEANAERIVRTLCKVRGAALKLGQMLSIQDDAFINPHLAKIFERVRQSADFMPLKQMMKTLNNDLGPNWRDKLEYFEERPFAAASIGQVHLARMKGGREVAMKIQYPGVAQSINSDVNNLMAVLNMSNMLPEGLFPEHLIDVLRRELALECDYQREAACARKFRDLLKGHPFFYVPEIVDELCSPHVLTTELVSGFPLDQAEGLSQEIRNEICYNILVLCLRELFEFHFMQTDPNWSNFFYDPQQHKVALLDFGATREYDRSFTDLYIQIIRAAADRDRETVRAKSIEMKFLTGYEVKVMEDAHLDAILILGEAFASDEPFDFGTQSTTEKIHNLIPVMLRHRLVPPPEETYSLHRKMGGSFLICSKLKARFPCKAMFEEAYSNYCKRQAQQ
Chain of NADH dehydrogenase [ubiquinone] 1 alpha subcomplex subunit 13 (Q9P0J0 whole entry, one chain of several): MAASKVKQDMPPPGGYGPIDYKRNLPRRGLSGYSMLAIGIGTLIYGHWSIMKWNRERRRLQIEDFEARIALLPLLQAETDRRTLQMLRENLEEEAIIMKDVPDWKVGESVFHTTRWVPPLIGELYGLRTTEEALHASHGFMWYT

SMILES	Kd [1]	Kd [2]	Kd [3]	Kd [4]	Kd [5]	Kd [6]	Kd [7]	Kd [8]	Kd [9]	Kd [10]	Kd (DNA topoisomerase 2-beta)	Kd [11]	Kd [12]
CC(=O)c1cnc2ccc(-c3cc(Cl)c(O)c(Cl)c3)nc2c1N[C@H]1CC[C@H](CN(C)C)CC1	> 30 µM (inactive)	> 30 µM (inactive)	0.01 µM (active)	> 30 µM (inactive)	> 30 µM (inactive)	0.515 µM (active)	0.103 µM (active)	> 30 µM (inactive)	> 30 µM (inactive)	> 30 µM (inactive)	> 30 µM (inactive)		
CCNC(=O)C#Cc1ccc2c(c1)NC(=O)/C2=C(\Nc1ccc(CN(C)C)cc1)c1ccccc1	> 30 µM (inactive)	> 30 µM (inactive)	> 30 µM (inactive)	> 30 µM (inactive)	> 30 µM (inactive)	> 30 µM (inactive)		> 30 µM (inactive)	> 30 µM (inactive)	> 30 µM (inactive)	> 30 µM (inactive)	0.918 µM (active)	0.333 µM (active)
Cc1nc2cc(-c3nn(C(C)C)c4ncnc(N)c34)ccc2o1	> 30 µM (inactive)	> 30 µM (inactive)	> 30 µM (inactive)	> 30 µM (inactive)	> 30 µM (inactive)	> 30 µM (inactive)		> 30 µM (inactive)	> 30 µM (inactive)	> 30 µM (inactive)	> 30 µM (inactive)	8.21 µM (active)	> 30 µM (inactive)
COc1cc(Nc2ncc3c(n2)-c2ccc(Cl)cc2C(c2c(F)cccc2OC)=NC3)ccc1C(=O)O [ALISERTIB]	> 30 µM (inactive)			> 30 µM (inactive)	3.92 µM		> 30 µM (inactive)	> 30 µM (inactive)	> 30 µM (inactive)	> 30 µM (inactive)	> 30 µM (inactive)		
CNC(=O)c1ccccc1Sc1ccc2c(/C=C/c3ccccn3)n[nH]c2c1 [AXITINIB]				> 30 µM (inactive)	> 30 µM (inactive)			> 30 µM (inactive)		> 30 µM (inactive)	> 30 µM (inactive)		
COc1cc2ncnc(Oc3cccc(NC(=O)Nc4cc(C(C)(C)C(F)(F)F)on4)c3)c2cc1OC [CEP-32496]	> 30 µM (inactive)	> 30 µM (inactive)	> 30 µM (inactive)	> 30 µM (inactive)	> 30 µM (inactive)	> 30 µM (inactive)		> 30 µM (inactive)	> 30 µM (inactive)	> 30 µM (inactive)	> 30 µM (inactive)	> 30 µM (inactive)	> 30 µM (inactive)
CC(C)(C)c1nc(-c2cccc(NS(=O)(=O)c3c(F)cccc3F)c2F)c(-c2ccnc(N)n2)s1 [DABRAFENIB]	> 30 µM (inactive)	> 30 µM (inactive)		> 30 µM (inactive)	> 30 µM (inactive)	> 30 µM (inactive)		> 30 µM (inactive)		> 30 µM (inactive)	> 30 µM (inactive)	1.82 µM (active)	0.52 µM (active)
Cn1cc(C2=C(c3cn(C4CCN(Cc5ccccn5)CC4)c4ccccc34)C(=O)NC2=O)c2ccccc21 [ENZASTAURIN]				> 30 µM (inactive)	> 30 µM (inactive)			> 30 µM (inactive)		> 30 µM (inactive)	> 30 µM (inactive)		
C[C@@H](Oc1cc(-n2cnc3ccc(CN4CCN(C)CC4)cc32)sc1C(N)=O)c1ccccc1C(F)(F)F [GSK-461364]				> 30 µM (inactive)	> 30 µM (inactive)			> 30 µM (inactive)		> 30 µM (inactive)	> 30 µM (inactive)		
CNC(=O)c1nn(C)c2c1C(C)(C)Cc1cnc(Nc3ccc(N4CCN(C)CC4)cc3)nc1-2 [MILCICLIB]	3.01 µM (active)	> 30 µM (inactive)	3.5 µM (active)	> 30 µM (inactive)	> 30 µM (inactive)	> 30 µM (inactive)		> 30 µM (inactive)	> 30 µM (inactive)	> 30 µM (inactive)	> 30 µM (inactive)		> 30 µM (inactive)
Cc1[nH]c(/C=C2\C(=O)Nc3ccccc32)c(C)c1CCC(=O)O [ORANTINIB]	> 30 µM (inactive)		2.1 µM (active)	> 30 µM (inactive)	> 30 µM (inactive)		0.744 µM (active)	> 30 µM (inactive)	> 30 µM (inactive)	> 30 µM (inactive)	> 30 µM (inactive)		
NC(=O)c1c(OCc2c(F)cc(Br)cc2F)nsc1NC(=O)NCCCCN1CCCC1 [OSI-632]	3.05 µM		> 30 µM (inactive)	> 30 µM (inactive)	> 30 µM (inactive)			> 30 µM (inactive)		> 30 µM (inactive)	> 30 µM (inactive)		
CC(=O)NCC(=O)N1[C@@H]2CC[C@H]1c1ccc(Nc3ncc(C(F)(F)F)c(NC4CCC4)n3)cc12 [PF-03814735]	> 30 µM (inactive)		2.64 µM (active)	> 30 µM (inactive)				> 30 µM (inactive)	> 30 µM (inactive)	> 30 µM (inactive)	> 30 µM (inactive)		
O=C(NOCCO)c1cc(CN2OCCCC2=O)c(F)c(F)c1Nc1ccc(I)cc1F [RO-4987655]				> 30 µM (inactive)	> 30 µM (inactive)			> 30 µM (inactive)		> 30 µM (inactive)	> 30 µM (inactive)		
N#CC[C@H](C1CCCC1)n1cc(-c2ncnc3[nH]ccc23)cn1 [RUXOLITINIB]				> 30 µM (inactive)	> 30 µM (inactive)			> 30 µM (inactive)		> 30 µM (inactive)	> 30 µM (inactive)		
CN1CCN(CCOc2cc(OC3CCOCC3)c3c(Nc4c(Cl)ccc5c4OCO5)ncnc3c2)CC1 [SARACATINIB]	0.275 µM (active)	> 30 µM (inactive)	> 30 µM (inactive)	> 30 µM (inactive)	> 30 µM (inactive)	> 30 µM (inactive)		> 30 µM (inactive)	> 30 µM (inactive)	> 30 µM (inactive)	> 30 µM (inactive)	> 30 µM (inactive)	> 30 µM (inactive)
